From US11827628B2, “Compositions and methods for inhibition of the JAK pathway” (Rigel Pharmaceuticals, Inc., priority 2005, dated 2023)
pIC50: −log10 of the molar value. Where a name gives a salt, the structure may show the parent alone.

test system: up-regulation of ICAM-1 (CD54) by IFNγ in A549 lung epithelial cells; test: A549 Epithelial Line Stimulated with IFNγ (ICAM-1 surface expression, FACS); assay type: cell-based, human; conditions: A549 cells stimulated with IFNγ, ICAM-1 expression by FACS; read-out: IC50, Example 43
Outline: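 ICAM-1 (CD54) flow cytometry on live-gated A549 cells, geometric mean versus dose giving EC50. Cells received IFNγ at 75 ng/mL for 24 h after a 1 h compound pre-treatment spanning 30 μM to 14 nM in medium with 5% FBS and 0.3% DMSO.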

pIC50	Compound
4.60	N4-(3,4-Dichlorophenyl)-5-fluoro-N2-[3-(4-methylpipendin-1-yl)aminosulfonylphenyl]-2,4-pyrimidinediamine [VI-10]
5.03	COc1ccc(CN2C(=O)C(C)Oc3ccc(Nc4nc(Nc5ccc(S(N)(=O)=O)cc5)ncc4F)cc32)cc1 (racemic) [Compound V-4, Racemic N2-(4-Aminosulphonylphenyl)-5-fluoro-N4-[2-methyl-3-oxo-4-(4-methoxybenzyl)-benz[1,4]oxazin-6-yl]-2,4-pyrimidinediamine]
5.00	COc1ccc(Nc2nc(Nc3cccc(S(=O)(=O)NN4CCC(C)CC4)c3)ncc2F)cc1Cl [VI-9, N4-(3-Chloro-4-methoxyphenyl)-5-fluoro-N2-[3-(4-methylpipendin-1-yl)aminosulfonylphenyl]-2,4-pyrimidinediamine]
4.50	NS(=O)(=O)c1cccc(Nc2ncc(F)c(Nc3ccc(Cc4ccncc4)cc3)n2)c1 [III-129, N2-(3-Aminosulfonylphenyl)-5-fluoro-N4-[4-(4-pyridylmethyl)phenyl]-2,4-pyrimidinediamine Methanesulfonic Acid Salt]

same assay, conditions: Homo sapiens, A549, A549 cells stimulated with IFNγ, ICAM-1 expression by FACS; read-out: IC50, Example 43

pIC50	Compound
5.09	Cc1cc(Nc2nc(Nc3ccc(S(N)(=O)=O)cc3)ncc2F)cc(C)c1N1CCN(C)CC1 [IX-44, N2-(4-Aminosulfonylphenyl)-N4-[3,5-dimethyl-4-(4-methylpiperazin-1-yl]phenyl)-5-fluoro-2,4-pyrimidinediamine]
5.02	COC(=O)c1ccc(Nc2nc(Nc3ccc(F)c(S(N)(=O)=O)c3)ncc2F)s1 [IX-48, N2-(3-Aminosulfonyl-4-fluorophenyl)-5-fluoro-N4-(5-methoxycarbonyl-thiophene-2-yl)-2,4-pyrimidinediamine]
5.30	Cc1cc2ccc(CNc3nc(Nc4cccc(S(N)(=O)=O)c4)ncc3F)cc2[nH]1 [Compound X-3]

same assay, conditions: Homo sapiens, A549, A549 epithelial line stimulated with IFNγ; ICAM-1 expression by FACS; read-out: IC50, Example 43

Compound	pIC50
Cc1ccc(Nc2ncc(C)c(Nc3ccc(OCC(=O)N(C)C)c(Cl)c3)n2)cc1S(N)(=O)=O [Compound I-136, N2-(3-Aminosulfonyl-4-methylphenyl)-N4-(3-chloro-4-dimethylaminocarbonylmethoxyphenyl)-5-methyl-2,4-pyrimidinediamine]	5.09
NC(=O)COc1ccc(Nc2nc(Nc3cccc(S(N)(=O)=O)c3)ncc2F)cc1Cl [Compound I-98, N4-(4-Aminocarbonylmethoxy-3-chlorophenyl)-N2-(3-aminosulfonylphenyl)-5-fluoro-2,4-pyrimidinediamine]	4.43
Cc1ccc(Nc2nc(Nc3cccc(S(N)(=O)=O)c3)ncc2F)cc1OCCN1CCOCC1 [Compound I-203, N2-(3-Aminosulfonylphenyl)-5-fluoro-N4-[4-methyl-3-(2-morpholinoethyloxy)phenyl]-2,4-pyrimidinediamine]	5.24
Cc1cnc(Nc2cccc(S(N)(=O)=O)c2)nc1Nc1ccc(OCC#N)cc1 [Compound I-58, N2-(3-Aminosulfonylphenyl)-N4-(4-cyanomethoxyphenyl)-5-methyl-2,4-pyrimidinediamine]	6.14
Cc1ccc(Nc2ncc(F)c(Nc3ccc(OCC(N)=O)c(F)c3)n2)cc1S(N)(=O)=O [Compound I-102, N4-(4-Aminocarbonylmethoxy-3-fluorophenyl)-N2-(3-aminosulfonyl-4-methylphenyl)-5-fluoro-2,4-pyrimidinediamine]	4.36
NC(=O)COc1ccc(Nc2nc(Nc3ccc(S(N)(=O)=O)cc3)ncc2F)cc1Cl [Compound I-97, N4-(4-Aminocarbonylmethoxy-3-chlorophenyl)-N2-(4-aminosulfonylphenyl)-5-fluoro-2,4-pyrimidinediamine]	4.51
COc1cc(Nc2nc(Nc3ccc(S(N)(=O)=O)cc3)ncc2F)ccc1OCC#N [Compound I-45, N2-(4-Aminosulfonylphenyl)-N4-(4-cyanomethoxy-3-methoxyphenyl)-5-fluoro-2,4-pyrimidinediamine]	4.77
Cc1cnc(Nc2ccc(Cl)c(S(N)(=O)=O)c2)nc1Nc1ccc(OCC(=O)N(C)C)c(Cl)c1 [Compound I-141, N2-(3-Aminosulfonyl-4-chlorophenyl)-N4-(3-chloro-4-dimethylaminocarbonylmethoxyphenyl)-5-methyl-2,4-pyrimidinediamine]	4.81
Cc1cc(COc2ccc(Nc3nc(Nc4cccc(S(N)(=O)=O)c4)ncc3F)cc2)no1 [Compound I-230, N2-(3-Aminosulfonylphenyl)-5-fluoro-N4-[4-(5-methylisoxazol-3-yl)methyleneoxyphenyl]-2,4-pyrimidinediamine]	4.98
COc1cc(Nc2nc(Nc3ccc(S(N)(=O)=O)cc3)ncc2F)cc(OCC#N)c1OC [Compound I-1, N2-(4-Aminosulphonylphenyl)-N4-(3-cyanomethoxy-4,5-dimethoxyphenyl)-5-fluoro-2,4-pyrimidinediamine]	4.73
COc1ccc(Nc2ncc(F)c(Nc3ccc(OCC#N)cc3)n2)cc1S(N)(=O)=O [Compound I-56, N2-(3-Aminosulfonyl-4-methoxyphenyl)-N4-(4-cyanomethoxyphenyl)-5-fluoro-2,4-pyrimidinediamine]	5.30
Cc1cnc(Nc2cccc(S(N)(=O)=O)c2)nc1Nc1ccc(OCC(=O)N(C)C)c(F)c1 [Compound I-138, N2-(3-Aminosulfonylphenyl)-N4-(4-dimethylaminocarbonylmethoxy-3-fluorophenyl)-5-methyl-2,4-pyrimidinediamine]	4.04
NC(=O)COc1ccc(Nc2nc(Nc3cccc(S(N)(=O)=O)c3)ncc2F)cc1F [Compound I-101, N4-(4-Aminocarbonylmethoxy-3-fluorophenyl)-N2-(3-aminosulfonylphenyl)-5-fluoro-2,4-pyrimidinediamine]	4.29
Cc1ccc(Nc2ncc(C)c(Nc3ccc(OCC#N)cc3)n2)cc1S(N)(=O)=O [Compound I-59, N2-(3-Aminosulfonyl-4-methylphenyl)-N4-(4-cyanomethoxyphenyl)-5-methyl-2,4-pyrimidinediamine]	6.02
NS(=O)(=O)c1ccc(Nc2ncc(F)c(Nc3ccc(OCCN4CCOCC4)cc3)n2)cc1 [Compound I-205, N2-(4-Aminosulfonylphenyl)-5-fluoro-N4-[4-(2-morpholinoethyloxy)phenyl)-2,4-pyrimidinediamine]	5.02
Cc1ccc(Nc2ncc(C)c(Nc3ccc(OCC(N)=O)cc3)n2)cc1S(N)(=O)=O [Compound I-110, N4-(4-Aminocarbonylmethoxyphenyl)-N2-(3-aminosulfonyl-4-methylphenyl)-5-methyl-2,4-pyrimidinediamine]	4.69
Cc1cnc(Nc2cccc(S(N)(=O)=O)c2)nc1Nc1ccc(OCC(=O)N(C)C)c(Cl)c1 [Compound I-135, N2-(3-Aminosulfonylphenyl)-N4-(3-chloro-4-dimethylaminocarbonylmethoxyphenyl)-5-methyl-2,4-pyrimidinediamine]	5.49
Cc1ccc(Nc2ncc(C)c(Nc3ccc(OCC(=O)N(C)C)c(F)c3)n2)cc1S(N)(=O)=O [Compound I-139, N2-(3-Aminosulfonyl-4-methylphenyl)-N4-(4-dimethylaminocarbonylmethoxy-3-fluorophenyl)-5-methyl-2,4-pyrimidinediamine]	4.94
Cc1cnc(Nc2cccc(S(N)(=O)=O)c2)nc1Nc1ccc(OCC(N)=O)cc1 [Compound I-109, N4-(4-Aminocarbonylmethoxyphenyl)-N2-(3-aminosulfonylphenyl)-5-methyl-2,4-pyrimidinediamine]	4.59

Continued, values first:

pIC50	Compound
4.97	Cc1ccc(Nc2ncc(F)c(NCCc3ccc(-n4ccnc4)cc3)n2)cc1S(N)(=O)=O [III-88, N2-(3-Aminosulfonyl-4-methylphenyl)-5-fluoro-N4-[4-(1-imidazolyl)phenethyl]-2,4-pyrimidinediamine]
4.12	NS(=O)(=O)c1cccc(Nc2ncc(F)c(NCCc3ccc(-n4ccnc4)cc3)n2)c1 [III-87, N2-(3-Aminosulfonylphenyl)-5-fluoro-N4-[4-(1-imidazolyl)phenethyl]-2,4-pyrimidinediamine]
4.26	CN(C)C(=O)OCCc1ccc(Nc2nc(Nc3cccc(S(N)(=O)=O)c3)ncc2F)cc1 [III-57, N2-(3-Aminosulfonylphenyl)-N4-{4-[2-(dimethylaminocarbonyloxy)ethyl]phenyl}-5-fluoro-2,4-pyrimidinediamine]
5.08	NS(=O)(=O)c1ccc(Nc2ncc(F)c(Nc3ccc(Cc4ccncc4)cc3)n2)cc1 [III-71, N2-(4-Aminosulfonylphenyl)-5-fluoro-N4-[4-(4-pyridinylmethyl)phenyl]-2,4-pyrimidinediamine]
5.26	Cc1ccc(Nc2ncc(F)c(Nc3ccc(Oc4cccnc4)cc3)n2)cc1S(N)(=O)=O [II-12, N2-(3-Aminosulfonyl-4-methylphenyl)-5-fluoro-N4-[4-(3-pyridyloxy)phenyl]-2,4-pyrimidinediamine]
4.66	Cc1cc(Nc2nc(Nc3ccc(C)c(S(N)(=O)=O)c3)ncc2F)ccc1CCC#N [III-19, N2-(3-Aminosulfonyl-4-methylphenyl)-N4-[4-(2-cyanoethyl)-3-methylphenyl]-5-fluoro-2,4-pyrimidinediamine]
5.45	Cc1cnc(Nc2ccc(Cl)c(S(N)(=O)=O)c2)nc1Nc1ccc(CCC#N)cc1 [III-12, N2-(3-Aminosulfonyl-4-chlorophenyl)-N4-[4-(2-cyanoethyl)phenyl]-5-methyl-2,4-pyrimidinediamine]
4.59	CNC(=O)OCCc1ccc(Nc2nc(Nc3cccc(S(N)(=O)=O)c3)ncc2F)cc1 [III-60, N2-(3-Aminosulfonylphenyl)-5-fluoro-N4-{4-[2-(methylaminocarbonyloxy)ethyl]phenyl}-2,4-pyrimidinediamine]
